Results reported in US9546156B2, “N-bicyclic aryl,N'-pyrazolyl urea, thiourea, guanidine cyanoguanidine compounds as TrkA kinase inhibitors” (Array BioPharma Inc., priority 2012, dated 2017).

Assays:
Assay in all cases: Off-target kinase profiling (KinaseProfiler)
Format in all cases: biochemical
Conditions in all cases: 10 μM, ATP near Km
PrKX = target: T1, PrKX (Homo sapiens, UniProt P51817)
T1 construct: purchased Millipore, Inc. (KinaseProfiler service)
How it was run: (§1)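 Read-out: residual activity as percent of control, the average of two runs. Conditions: inhibitor at 10 μM; ATP concentration matched to near the Km of the individual kinase.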

FAK = target: T2, FAK (Homo sapiens, UniProt Q05397)
T2 construct: purchased Millipore, Inc. (KinaseProfiler service)
How it was run: as §1

WNK3 = target: T3, WNK3 (Homo sapiens, UniProt Q9BYP7)
T3 construct: purchased Millipore, Inc. (KinaseProfiler service)
How it was run: as §1

CDK2/cyclinE = target: T4, CDK2/cyclinE (Homo sapiens, UniProt P24941)
T4 construct: purchased Millipore, Inc. (KinaseProfiler service)
How it was run: as §1

Rse = target: T5, Rse (Homo sapiens, UniProt Q06418)
T5 construct: purchased Millipore, Inc. (KinaseProfiler service)
How it was run: as §1

CHK2 = target: T6, CHK2 (Homo sapiens, UniProt O96017)
T6 construct: purchased Millipore, Inc. (KinaseProfiler service)
How it was run: as §1

DCAMKL2 = target: T7, DCAMKL2 (Homo sapiens, UniProt Q8N568)
T7 construct: purchased Millipore, Inc. (KinaseProfiler service)
T7 sequence (Q8N568 whole entry): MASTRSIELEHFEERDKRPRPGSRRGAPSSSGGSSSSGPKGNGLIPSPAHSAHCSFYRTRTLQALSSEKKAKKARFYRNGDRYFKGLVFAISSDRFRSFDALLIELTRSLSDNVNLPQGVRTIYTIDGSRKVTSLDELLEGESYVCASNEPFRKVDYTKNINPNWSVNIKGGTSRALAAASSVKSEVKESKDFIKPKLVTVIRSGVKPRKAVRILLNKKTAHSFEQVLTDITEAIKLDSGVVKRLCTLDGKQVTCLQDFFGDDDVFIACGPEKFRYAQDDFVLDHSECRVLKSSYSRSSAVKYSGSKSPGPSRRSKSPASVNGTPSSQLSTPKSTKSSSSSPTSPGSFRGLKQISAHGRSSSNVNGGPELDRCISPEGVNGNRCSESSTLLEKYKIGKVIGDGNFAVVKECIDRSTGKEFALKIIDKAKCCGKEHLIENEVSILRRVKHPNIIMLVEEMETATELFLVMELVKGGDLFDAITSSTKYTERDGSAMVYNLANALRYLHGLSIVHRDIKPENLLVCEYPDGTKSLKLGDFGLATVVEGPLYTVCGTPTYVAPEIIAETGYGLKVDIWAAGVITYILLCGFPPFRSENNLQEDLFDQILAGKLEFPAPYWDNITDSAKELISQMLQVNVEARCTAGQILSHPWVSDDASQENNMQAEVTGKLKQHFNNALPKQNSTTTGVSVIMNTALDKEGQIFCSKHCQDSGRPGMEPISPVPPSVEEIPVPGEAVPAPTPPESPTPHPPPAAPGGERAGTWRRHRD
How it was run: as §1

EGFR = target: T8, EGFR (Homo sapiens, UniProt P00533)
T8 construct: purchased Millipore, Inc. (KinaseProfiler service)
How it was run: as §1

ULK2 = target: T9, ULK2 (Homo sapiens, UniProt Q8IYT8)
T9 construct: purchased Millipore, Inc. (KinaseProfiler service)
T9 sequence (Q8IYT8 whole entry): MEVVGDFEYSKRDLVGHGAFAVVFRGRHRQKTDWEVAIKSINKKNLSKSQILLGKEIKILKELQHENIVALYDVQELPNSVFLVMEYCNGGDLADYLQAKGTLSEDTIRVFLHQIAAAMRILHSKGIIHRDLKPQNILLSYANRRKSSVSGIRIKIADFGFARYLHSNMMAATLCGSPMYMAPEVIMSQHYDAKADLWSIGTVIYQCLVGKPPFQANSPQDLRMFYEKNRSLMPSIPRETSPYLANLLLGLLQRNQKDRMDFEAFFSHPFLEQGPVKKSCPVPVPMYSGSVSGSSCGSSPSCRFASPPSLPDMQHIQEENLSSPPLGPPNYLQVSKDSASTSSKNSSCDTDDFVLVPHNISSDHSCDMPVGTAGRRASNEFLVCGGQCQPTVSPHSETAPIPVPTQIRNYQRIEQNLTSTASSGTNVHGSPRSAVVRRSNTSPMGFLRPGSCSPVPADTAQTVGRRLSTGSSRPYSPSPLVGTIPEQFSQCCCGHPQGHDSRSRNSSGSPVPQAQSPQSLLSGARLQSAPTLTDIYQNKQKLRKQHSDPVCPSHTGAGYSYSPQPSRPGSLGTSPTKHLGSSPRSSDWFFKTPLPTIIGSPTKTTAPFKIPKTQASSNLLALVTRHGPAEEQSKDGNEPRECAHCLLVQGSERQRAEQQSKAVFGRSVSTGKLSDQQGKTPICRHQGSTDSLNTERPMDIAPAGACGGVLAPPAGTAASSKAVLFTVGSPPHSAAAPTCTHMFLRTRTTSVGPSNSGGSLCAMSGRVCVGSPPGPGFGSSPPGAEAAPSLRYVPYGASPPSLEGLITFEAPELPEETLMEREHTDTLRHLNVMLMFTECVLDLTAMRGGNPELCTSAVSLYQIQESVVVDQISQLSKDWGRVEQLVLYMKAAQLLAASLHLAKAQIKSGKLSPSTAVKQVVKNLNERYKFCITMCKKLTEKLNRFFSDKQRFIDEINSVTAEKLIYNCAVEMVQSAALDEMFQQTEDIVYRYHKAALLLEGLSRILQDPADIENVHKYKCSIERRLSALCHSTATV
How it was run: as §1

MLK1 = target: T10, MLK1 (Homo sapiens, UniProt P80192)
T10 construct: purchased Millipore, Inc. (KinaseProfiler service)
How it was run: as §1

MYLK = target: T11, MYLK (Homo sapiens, UniProt Q15746)
T11 construct: purchased Millipore, Inc. (KinaseProfiler service)
How it was run: as §1

CDK6/cyclinD3 = target: T12, CDK6/cyclinD3 (Homo sapiens, UniProt Q00534)
T12 construct: purchased Millipore, Inc. (KinaseProfiler service)
T12 sequence (Q00534 whole entry): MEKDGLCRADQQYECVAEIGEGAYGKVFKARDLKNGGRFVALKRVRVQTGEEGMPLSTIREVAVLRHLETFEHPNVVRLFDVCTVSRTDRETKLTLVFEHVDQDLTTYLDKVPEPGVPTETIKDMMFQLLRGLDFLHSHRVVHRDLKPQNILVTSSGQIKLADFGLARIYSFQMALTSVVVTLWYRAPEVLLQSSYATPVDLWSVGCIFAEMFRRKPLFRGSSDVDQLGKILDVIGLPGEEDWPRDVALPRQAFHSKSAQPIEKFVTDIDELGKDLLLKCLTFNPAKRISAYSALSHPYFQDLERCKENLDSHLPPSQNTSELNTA
T12 sequence (P30281 whole entry partner): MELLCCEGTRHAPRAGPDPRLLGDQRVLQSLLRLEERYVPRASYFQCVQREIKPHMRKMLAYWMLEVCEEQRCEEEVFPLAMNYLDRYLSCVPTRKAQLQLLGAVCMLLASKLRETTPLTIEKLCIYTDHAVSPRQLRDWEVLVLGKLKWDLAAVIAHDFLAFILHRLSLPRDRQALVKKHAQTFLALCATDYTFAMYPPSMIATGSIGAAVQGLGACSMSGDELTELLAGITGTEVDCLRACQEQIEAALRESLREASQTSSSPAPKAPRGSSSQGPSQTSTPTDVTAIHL
How it was run: as §1

EphA7 = target: T13, EphA7 (Rattus norvegicus, UniProt P54759)
T13 construct: purchased Millipore, Inc. (KinaseProfiler service)
How it was run: as §1

Yes = target: T14, Yes (Homo sapiens, UniProt P07947)
T14 construct: purchased Millipore, Inc. (KinaseProfiler service)
How it was run: as §1

Ron = target: T15, Ron (Homo sapiens, UniProt Q04912)
T15 construct: purchased Millipore, Inc. (KinaseProfiler service)
How it was run: as §1

CAMK2d = target: T16, CAMK2d (Homo sapiens, UniProt Q13557)
T16 construct: purchased Millipore, Inc. (KinaseProfiler service)
How it was run: as §1

HIPK3 = target: T17, HIPK3 (Homo sapiens, UniProt Q9H422)
T17 construct: purchased Millipore, Inc. (KinaseProfiler service)
How it was run: as §1

MKNK2 = target: T18, MKNK2 (Homo sapiens, UniProt Q9HBH9)
T18 construct: purchased Millipore, Inc. (KinaseProfiler service)
T18 sequence (Q9HBH9 whole entry): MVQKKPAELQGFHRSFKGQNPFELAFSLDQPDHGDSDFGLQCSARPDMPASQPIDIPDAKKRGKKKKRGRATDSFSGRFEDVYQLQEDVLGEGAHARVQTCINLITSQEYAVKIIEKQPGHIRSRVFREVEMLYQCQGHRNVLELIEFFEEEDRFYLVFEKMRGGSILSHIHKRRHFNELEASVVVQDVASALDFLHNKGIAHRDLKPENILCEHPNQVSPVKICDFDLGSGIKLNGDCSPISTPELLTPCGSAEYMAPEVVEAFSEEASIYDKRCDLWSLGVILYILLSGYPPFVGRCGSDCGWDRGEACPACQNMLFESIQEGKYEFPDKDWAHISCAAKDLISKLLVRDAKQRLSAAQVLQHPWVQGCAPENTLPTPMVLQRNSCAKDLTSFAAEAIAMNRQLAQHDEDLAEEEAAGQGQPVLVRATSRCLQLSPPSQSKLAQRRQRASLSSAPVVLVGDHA
How it was run: as §1

TSSK1 = target: T19, TSSK1 (Homo sapiens, UniProt Q9BXA7)
T19 construct: purchased Millipore, Inc. (KinaseProfiler service)
T19 sequence (Q9BXA7 whole entry): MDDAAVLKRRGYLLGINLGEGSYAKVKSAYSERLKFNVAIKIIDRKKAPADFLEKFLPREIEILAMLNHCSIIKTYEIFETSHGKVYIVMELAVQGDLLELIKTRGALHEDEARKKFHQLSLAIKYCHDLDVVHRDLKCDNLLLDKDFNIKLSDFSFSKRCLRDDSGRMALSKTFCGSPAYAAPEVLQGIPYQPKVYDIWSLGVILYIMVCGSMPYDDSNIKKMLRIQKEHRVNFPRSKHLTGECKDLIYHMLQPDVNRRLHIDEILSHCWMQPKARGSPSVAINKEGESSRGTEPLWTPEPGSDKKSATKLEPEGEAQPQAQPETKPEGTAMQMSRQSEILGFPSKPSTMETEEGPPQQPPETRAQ
How it was run: as §1

ULK3 = target: T20, ULK3 (Homo sapiens, UniProt Q6PHR2)
T20 construct: purchased Millipore, Inc. (KinaseProfiler service)
T20 sequence (Q6PHR2 whole entry): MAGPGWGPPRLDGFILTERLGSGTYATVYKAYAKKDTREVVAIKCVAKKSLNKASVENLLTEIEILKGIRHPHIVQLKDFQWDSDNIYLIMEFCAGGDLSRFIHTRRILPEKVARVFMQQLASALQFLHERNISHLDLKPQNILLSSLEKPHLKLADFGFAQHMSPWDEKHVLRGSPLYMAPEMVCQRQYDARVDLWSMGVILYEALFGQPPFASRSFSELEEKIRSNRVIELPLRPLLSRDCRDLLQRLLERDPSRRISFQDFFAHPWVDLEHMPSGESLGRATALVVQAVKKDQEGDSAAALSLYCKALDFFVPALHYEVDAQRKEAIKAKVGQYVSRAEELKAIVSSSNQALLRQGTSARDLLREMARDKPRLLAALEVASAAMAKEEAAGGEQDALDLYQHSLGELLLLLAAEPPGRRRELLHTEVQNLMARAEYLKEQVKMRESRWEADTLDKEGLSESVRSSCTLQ
How it was run: as §1

CAMK2g = target: T21, CAMK2g (Homo sapiens, UniProt Q13555)
T21 construct: purchased Millipore, Inc. (KinaseProfiler service)
How it was run: as §1

GRK5 = target: T22, GRK5 (Homo sapiens, UniProt P34947)
T22 construct: purchased Millipore, Inc. (KinaseProfiler service)
How it was run: as §1

TAO3 = target: T23, TAO3 (Homo sapiens, UniProt Q9H2K8)
T23 construct: purchased Millipore, Inc. (KinaseProfiler service)
How it was run: as §1

MAP3K5 = target: T24, MAP3K5 (Homo sapiens, UniProt Q99683)
T24 construct: purchased Millipore, Inc. (KinaseProfiler service)
How it was run: as §1

PDGFRalpha = target: T25, PDGFRalpha (Homo sapiens, UniProt P16234)
T25 construct: purchased Millipore, Inc. (KinaseProfiler service)
How it was run: as §1

PDGFRbeta = target: T26, PDGFRbeta (Homo sapiens, UniProt P09619)
T26 construct: purchased Millipore, Inc. (KinaseProfiler service)
How it was run: as §1

Plk2 = target: T27, Plk2 (Homo sapiens, UniProt Q9NYY3)
T27 construct: purchased Millipore, Inc. (KinaseProfiler service)
How it was run: as §1

VRK2 = target: T28, VRK2 (Homo sapiens, UniProt Q86Y07)
T28 construct: purchased Millipore, Inc. (KinaseProfiler service)
How it was run: as §1

CSK = target: T29, CSK (Homo sapiens, UniProt P41240)
T29 construct: purchased Millipore, Inc. (KinaseProfiler service)
How it was run: as §1

MAPKAP-K3 = target: T30, MAPKAP-K3 (Homo sapiens, UniProt Q16644)
T30 construct: purchased Millipore, Inc. (KinaseProfiler service)
How it was run: as §1

TLK2 = target: T31, TLK2 (Homo sapiens, UniProt Q86UE8)
T31 construct: purchased Millipore, Inc. (KinaseProfiler service)
How it was run: as §1

MAPKAP-K5 = target: T32, MAPKAP-K5 (Homo sapiens, UniProt Q8IW41)
T32 construct: purchased Millipore, Inc. (KinaseProfiler service)
How it was run: as §1

mTOR/FKBP12 = target: T33, mTOR/FKBP12 (Homo sapiens, UniProt P42345)
T33 construct: purchased Millipore, Inc. (KinaseProfiler service)
How it was run: as §1

IR = target: T34, IR (Homo sapiens, UniProt P06213)
T34 construct: purchased Millipore, Inc. (KinaseProfiler service)
How it was run: as §1

Pim-2 = target: T35, Pim-2 (Homo sapiens, UniProt Q9P1W9)
T35 construct: purchased Millipore, Inc. (KinaseProfiler service)
How it was run: as §1

PAK4 = target: T36, PAK4 (Homo sapiens, UniProt O96013)
T36 construct: purchased Millipore, Inc. (KinaseProfiler service)
How it was run: as §1

CK1gamma2 = target: T37, CK1gamma2 (Homo sapiens, UniProt P78368)
T37 construct: purchased Millipore, Inc. (KinaseProfiler service)
How it was run: as §1

BTK = target: T38, BTK (Homo sapiens, UniProt Q06187)
T38 construct: purchased Millipore, Inc. (KinaseProfiler service)
T38 sequence (Q06187 whole entry): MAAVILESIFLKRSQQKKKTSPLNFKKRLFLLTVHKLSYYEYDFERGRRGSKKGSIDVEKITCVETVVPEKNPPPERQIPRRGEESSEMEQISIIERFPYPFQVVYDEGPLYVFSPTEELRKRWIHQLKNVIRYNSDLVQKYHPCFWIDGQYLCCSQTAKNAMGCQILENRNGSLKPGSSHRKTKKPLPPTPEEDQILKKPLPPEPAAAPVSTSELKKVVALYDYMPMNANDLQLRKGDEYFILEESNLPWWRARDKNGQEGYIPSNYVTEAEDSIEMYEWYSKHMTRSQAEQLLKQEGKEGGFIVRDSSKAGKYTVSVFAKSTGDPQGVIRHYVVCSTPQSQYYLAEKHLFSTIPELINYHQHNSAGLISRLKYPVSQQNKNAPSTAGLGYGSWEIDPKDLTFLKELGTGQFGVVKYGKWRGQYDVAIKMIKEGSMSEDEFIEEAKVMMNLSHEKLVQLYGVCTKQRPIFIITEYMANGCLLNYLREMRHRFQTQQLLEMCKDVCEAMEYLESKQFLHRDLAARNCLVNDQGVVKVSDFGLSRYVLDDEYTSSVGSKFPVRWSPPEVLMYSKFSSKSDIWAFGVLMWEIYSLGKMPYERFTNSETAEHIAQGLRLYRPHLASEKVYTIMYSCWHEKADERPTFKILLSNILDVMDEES
How it was run: as §1

HIPK2 = target: T39, HIPK2 (Homo sapiens, UniProt Q9H2X6)
T39 construct: purchased Millipore, Inc. (KinaseProfiler service)
How it was run: as §1

Lck = target: T40, Lck (Homo sapiens, UniProt P06239)
T40 construct: purchased Millipore, Inc. (KinaseProfiler service)
How it was run: as §1

Bmx = target: T41, Bmx (Homo sapiens, UniProt P51813)
T41 construct: purchased Millipore, Inc. (KinaseProfiler service)
How it was run: as §1

T1 sequence (P51817 whole entry): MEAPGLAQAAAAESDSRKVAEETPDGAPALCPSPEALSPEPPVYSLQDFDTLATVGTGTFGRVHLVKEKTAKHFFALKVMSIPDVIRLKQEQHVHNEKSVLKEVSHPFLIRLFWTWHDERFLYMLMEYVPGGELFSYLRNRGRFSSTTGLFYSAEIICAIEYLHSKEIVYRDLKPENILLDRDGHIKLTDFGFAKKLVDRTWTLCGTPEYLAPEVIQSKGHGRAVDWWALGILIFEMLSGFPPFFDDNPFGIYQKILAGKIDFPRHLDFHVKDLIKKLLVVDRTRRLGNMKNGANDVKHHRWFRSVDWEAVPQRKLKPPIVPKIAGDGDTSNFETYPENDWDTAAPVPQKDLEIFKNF

COCc1ccc2cccc(NC(=O)Nc3c(C)c(-c4cnn(C)c4)nn3-c3ccccc3)c2c1 [Example 16, 1-(1′,4-dimethyl-1-phenyl-1H,1′H-[3,4′-bipyrazol]-5-yl)-3-(7-(methoxymethyl)naphthalen-1-yl)urea]
Avg POC (PrKX): 134 POC
Avg POC (FAK): 113.5 POC
Avg POC (WNK3): 122 POC
Avg POC (CDK2/cyclinE): 143 POC
Avg POC (Rse): 120.5 POC
Avg POC (CHK2): 110.5 POC
Avg POC (DCAMKL2): 175 POC
Avg POC (EGFR): 106 POC
Avg POC (ULK2): 102 POC
Avg POC (MLK1): 106 POC
Avg POC (MYLK): 109.5 POC
Avg POC (CDK6/cyclinD3): 121 POC
Avg POC (EphA7): 107 POC
Avg POC (Yes): 107.5 POC
Avg POC (Ron): 117 POC
Avg POC (CAMK2d): 106.5 POC
Avg POC (HIPK3): 109.5 POC
Avg POC (MKNK2): 118.5 POC
Avg POC (TSSK1): 104.5 POC
Avg POC (ULK3): 98.5 POC
Avg POC (CAMK2g): 98 POC
Avg POC (GRK5): 108 POC
Avg POC (TAO3): 89.5 POC
Avg POC (MAP3K5): 112.5 POC
Avg POC (PDGFRalpha): 132 POC
Avg POC (PDGFRbeta): 136.5 POC
Avg POC (Plk2): 104.5 POC
Avg POC (VRK2): 110 POC
Avg POC (CSK): 132 POC
Avg POC (MAPKAP-K3): 126.5 POC
Avg POC (TLK2): 106 POC
Avg POC (MAPKAP-K5): 122.5 POC
Avg POC (mTOR/FKBP12): 113 POC
Avg POC (IR): 92 POC
Avg POC (Pim-2): 141.5 POC
Avg POC (PAK4): 112.5 POC
Avg POC (CK1gamma2): 124.5 POC
Avg POC (BTK): 121.5 POC
Avg POC (HIPK2): 97 POC
Avg POC (Lck): 103 POC
Avg POC (Bmx): 125 POC
